# Test results as given in ChEMBL document CHEMBL3639225, “Perfluorinated cyclopropyl fused 1,3-oxazin-2-amine compounds as beta-secretase inhibitors and methods of use” (2015).
# pIC50: −log10 of the molar value.
# Molecular target: Cathepsin D (Homo sapiens, UniProt P07339)
# Assay: Fluorescence Resonance Energy Transfer Assay: Recombinant Cat D was expressed in CHO cells. The assay buffer for CathepsinD is 0.05 M citrate pH 3.5, 10% DMSO final, 5 mM CHAPS. The Cat D enzyme (9 nM) is pre-incubated for one hour with inhibitors, typically in about 1 uL of DMSO according to a serial dilution, is added thereto. The assays are effectively started by the addition of different FRET substrates (20 nM for Cat D) and the combination is incubated for one hour. The FRET assay is terminated with by addition of Tris buffer, which raises the pH to neutrality, and the fluorescence is determined. The FRET substrate is a peptide with commercially available fluorophore and quencher, on opposite sides of the BACE cleavage site. The Cat D substrate peptide sequence is based on sequence #1 of Table 1 from Gulnik et al. FEBS Letters v413 p379-384 1997. Proteolytic cleavage of the FRET substrate releases quenching of fluorescence (Cat D excitation 500 nm and emission 580 nm).
# Type: cell-based
# Cathepsin D, sequence (P07339 65-162 limits assumed): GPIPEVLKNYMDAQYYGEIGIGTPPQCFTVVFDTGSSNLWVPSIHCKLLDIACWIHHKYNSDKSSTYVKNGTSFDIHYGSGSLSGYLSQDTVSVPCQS
# Cathepsin D, sequence (P07339 169-412 limits assumed): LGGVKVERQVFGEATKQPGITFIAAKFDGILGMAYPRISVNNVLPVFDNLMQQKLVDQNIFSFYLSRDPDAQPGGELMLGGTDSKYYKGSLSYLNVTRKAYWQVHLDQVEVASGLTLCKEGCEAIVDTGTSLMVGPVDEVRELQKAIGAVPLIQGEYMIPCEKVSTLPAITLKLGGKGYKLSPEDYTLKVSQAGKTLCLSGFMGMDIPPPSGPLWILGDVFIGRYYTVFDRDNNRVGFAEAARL
row,pIC50,SMILES
1,2.99,NC1=N[C@@](c2cc(NC(=O)c3ncc(Br)cn3)ccc2F)(C(F)F)[C@H]2C[C@H]2O1
2,3.77,Cc1cc(NC(=O)c2ccc(Cl)cc2CF)cc([C@@]2(C(F)F)N=C(N)O[C@@H]3C[C@@H]32)c1F
3,3.27,NC1=N[C@](CF)(c2cc(NC(=O)c3ncc(Cl)cc3CO)ccc2Cl)[C@H]2C[C@H]2O1

row,SMILES,pIC50
1,NC1=N[C@](CF)(c2cc(NC(=O)c3ccc(Cl)cn3)cc(F)c2F)[C@H]2C[C@H]2O1,3.64
